# Earlier results, collected in patent publication US20260198506A1, “Broad-Spectrum Organic Fungicide & Bactericide” (Ecolution.AG LLC, priority 2020, published 2026).
# Test system: Gram-positive bacteria
# Settings: due to outer cell membrane impermeability of Gram-negatives
smiles,measurement,value
O=C(O)C1=C[C@@H](O)[C@@H](O)[C@H](O)C1 [shikimic acid],antibacterial activity spectrum,active only against Gram-positive bacteria
